Columns and labels:
[1] = tested on: dispersed schistosome muscle fibres; conditions: ref Day et al., 1997; cited from earlier work
[2] = tested on: dispersed schistosome muscle fibres

| Substance | effect on individual / dispersed schistosome muscle cells (fibres) [1] | activity in isolated muscle cell assays [2] |
| --- | --- | --- |
| YIRFamide | potent myoexcitatory effect |  |
| GFVRIamide |  | lacked measurable activity |
| YIRF-OH | lack of effect |  |
